Experimental data published in patent publication US20220226484A1, “THERAPEUTIC PEPTIDES” (COHBAR, INC., priority 2019, published 2022).
Positions of bridges follow the written chain, without caps; N, C: chain ends. Primed or numbered codes have the meaning given here. Chains are numbered I, II in the order given. No end group written: not given here. PEG12′ = not defined here

Legend:
human PC-3 tumor cells = test: Mouse PC-3 xenograft model of prostate cancer; assay type: in vivo; conditions: 5 mg/kg daily intraperitoneal
Procedure: Male BALB/c nude mice, 6-7 weeks of age, 20±2 g were inoculated subcutaneously in the right lower flank with a single volume of 0.1 ml of cell suspension containing about 1×10^7 human PC-3 tumor cells. Animals were weighed and randomized into treatment groups when the mean tumor size was around 130 mm^3. Groups of 10 animals received daily injections of test article (5 mg/kg) by intraperitoneal administration. Tumor size was measured twice per week in 2 dimensions using a calipers and tumor volume calculated by standard methods. The study was concluded on day 21 post initial-dosing (day 0).

[1] = test system: Rat primary cortical neurons; test: Neuroprotection against Aβ (1-42) toxicity in cultured neurons; assay type: cell-based; conditions: 24 hours
Procedure: Rat primary cortical neurons were collected and cultured by methods well known in the art (Singer et al., 1999 and Callizot et al., 2013). The cells were seeded at a density of 25,000 per well in 96-well plates precoated with poly-L-lysine and cultured at 37° C. in an air (95%)-CO2 (5%) incubator. The medium was changed every 2 days. The cortical neurons were treated after 11 days of culture. The A13(1-42) was prepared using the procedure described by Callizot et al., 2013 to ensure monomeric peptide. Compounds and the positive control, BDNF (50 ng/ml), were dissolved in culture medium and then pre-incubated with primary cortical neurons for 1 hour before addition of A13(1-42) (20 μM). After 24 hours of treatment, the cell culture supernatant was removed and the cortical neurons were fixed by a cold solution of ethanol (95%) and acetic acid (5%) for 5 min at −20° C. After permeabilization with 0.1% of saponin, cells were incubated for 2 hours with mouse monoclonal antibody anti-microtubule-associated-protein 2 (MAP-2) at a dilution of 1/400 in PBS containing 1% fetal calf serum and 0.1% of saponin to stain cell bodies and neurites.
This antibody was detected with Alexa Fluor 488 goat anti-mouse IgG at the dilution 1/400 in PBS containing 1% FCS, 0.1% saponin, for 1 hour at room temperature. For each condition, images were obtained using ImageXpress (Molecular Devices) with 20× magnification. The total number of cells and extent of neurite network was determined using Custom Module Editor (Molecular Devices).

[2] = test system: RENCA cells (renal adenocarcinoma cell line); test: Tumor growth in RENCA syngeneic mouse model; assay type: in vivo; conditions: 10 mg/kg daily intraperitoneal, female BALB/c mice, 10 per group
Procedure: The effect of the peptides on tumor growth can be assessed by monitoring tumor volume in syngeneic mouse cancer models such as RENCA, a mouse tumor model using a renal adenocarcinoma cell line. RENCA cells were grown in culture. On Day 0, 1.0×10^6 cells in 100 μl PBS were implanted into the mammary fat pad of female BALB/c mice. […] Test peptides were administered daily at a dose of 10 mg/kg by intraperitoneal administration. Primary tumor volumes were determined by caliper measurements twice a week. The growth rate of each tumor was calculated as the percent of the mean tumor growth of tumors observed in the control vehicle-treated group, as determined on Day 20 of the study.

[3] = test system: DSS-induced colitis in female C57BL/6NTac mice; test: DSS-induced colitis mouse model of inflammatory bowel disease; assay type: in vivo; conditions: 3% DSS 8 days; peptides 10 mg/kg/day intraperitoneal; CsA 80 mg/kg/day oral; AUC over 8 days
Procedure: The effect of the peptides on inflammatory disease can be assessed by monitoring fecal blood, stool consistency, and body weight loss in a DSS-induced colitis mouse model. Colitis was induced in female C57BL/6NTac mice (9-11 weeks old) by continuous ad libitum oral administration of dextran sodium sulfate (DSS) 3% in sterile drinking water for 8 days. Control (No DSS) mice received sterile water instead of DSS solution. Peptides were administered intraperitoneally once daily at 10 mg/kg/day for 8 days in combination with oral DSS. […] Daily assessments included body weight loss score, fecal blood score, stool consistency score, and composite disease activity index (DAI) score, based on the first three parameters combined. Scores recorded on each day over 8 days were used to calculate area under the curve (AUC) values for each endpoint in individual animals.

human lung fibroblasts = test: Fibroblast-to-myofibroblast transition assay, alpha smooth muscle actin expression; assay type: cell-based; conditions: 1.25 ng/ml TGF-β1, 72 hours
Text: The effect of the peptides on fibrosis can be assessed in vitro using a fibroblast-to-myofibroblast transition (FMT) assay and monitoring alpha smooth muscle actin ([…]SMA) produced by cultured cells such as healthy primary human lung fibroblast cells. Assay performed by Charles River Discovery Research Services UK Limited (Essex, UK). Transforming growth factor beta-1 (TGF-β1) stimulated alpha smooth muscle actin (αSMA) expression in human lung fibroblasts derived from three healthy donors was used to assess anti-fibrotic activity. Peptides were prepared as 10 mM stock in DMSO and tested in eight (8)-step concentration response curves using 0.5 Log M dilution steps with 10 μM as highest concentration (0.1% DMSO final). Transforming Growth Factor beta (TGF-β1) was used as a potent inducer of FMT as measured by increased αSMA expression. Isolated lung fibroblasts were seeded in 96-well or 384-well PureCol coated plates. Five days post-seeding, medium was refreshed, and peptides, reference compounds, and controls are added to the cells. After one hour, 1.25 ng/ml TGF-β1 was added to induce FMT. Expression of αSMA was measured 72 hours later by immunostaining, assessed by high content imaging on an IN Cell Analyzer 2200 (GE Healthcare) and quantified using an in-house developed algorithm with the IN Cell developer software (GE Healthcare). The output of the algorithm represents the staining intensity multiplied by the stained area (DxA levels). Co-staining of cell nuclei with DAPI was performed to quantify cell number, a measure of potential toxicity. The αSMA expression levels observed using 0.1% DMSO (negative control) were used to calculate percentage inhibition of αSMA by each peptide.

[4] = test system: bleomycin-induced lung fibrosis in male C57BL/6 mice; test: Therapeutic mouse model of idiopathic pulmonary fibrosis (bleomycin); assay type: in vivo; conditions: peptide 5 mg/kg/day intraperitoneal, nintedanib 60 mg/kg/day PO
Text: The effect of the peptides on the progression of established lung fibrosis can be assessed by monitoring lung fibrosis, lung weight, inflammatory cells in bronchoalveolar lavage fluid (BALF), soluble collagen in BALF, and body weight change in a therapeutic mouse model of idiopathic pulmonary fibrosis. Lung fibrosis was induced in lungs of male C57BL/6 mice between the ages of 6 to 8 weeks by nasophayngeal administration of bleomycin (1.5 U/kg using bleomycin clinical formulation diluted in PBS). A control group of animals were administered saline by the nasopharyngeal route (no-bleomycin control group). After one week, bleomycin-treated animals were randomized to treatment groups (N=10 per group) by body weight and treated daily with vehicle control, nintedanib positive control (60 mg/kg/day PO) or peptide (5 mg/kg/day by intraperitoneal injection). After 14 days of treatment (Day 21), lungs were removed and weighed. The post-caval lobe was separated and snap frozen. The lungs were flushed with Hanks Buffer and bronchoalveolar lavage fluid (BALF) was harvested from each animal. Total BALF leukocyte were counted. Slides were prepared from the remaining BALF leukocytes, fixed and stained with May Geimsa stain and the differential counts were recorded manually. BALF was evaluated for soluble collagen using a Sircol assay. Lungs were fixed in 10% neutral buffered formalin (NBF) for histopathological analysis. Fibrosis was assessed by histopathological analysis of H&E stained mouse lungs using an Ashcroft scoring system.

RVIRMCLGVGLLGDLAG [SEQ ID NO: 3]
Mean Tumor Volume (human PC-3 tumor cells; Time 0 Days, N = 10): 131 mm^3
Mean Tumor Volume (human PC-3 tumor cells; Time 4 Days): 136 mm^3
Mean Tumor Volume (human PC-3 tumor cells; Time 7 Days): 203 mm^3
Mean Tumor Volume (human PC-3 tumor cells; Time 11 Days): 270 mm^3
Mean Tumor Volume (human PC-3 tumor cells; Time 14 Days): 400 mm^3
Mean Tumor Volume (human PC-3 tumor cells; Time 18 Days): 596 mm^3
Mean Tumor Volume (human PC-3 tumor cells; Time 22 Days): 806 mm^3
Percent Protection of Neuronal Network ([1]; Aβ (1-42) 20 μM + peptide 100 nM): 80%
Percent Protection of Neuronal Network ([1]; Aβ (1-42) 20 μM + peptide 10 uM): 81%

RVIRMCLGVGLLGDLAGK{PEG12} (chain 1 RVIRMCLGVGLLGDLAGK(PEG12′); chain 2 RVIRMCLGVGLLGDLAGK(PEG12′); disulfide I:6-II:6) [SEQ ID NO: 28]
Mean (SEM) Percent of Control Group Tumor Growth at Day 20 [2]: 57.3 (14.4) Percent
Mean (SEM) Body Weight Loss Score AUC [3]: 1.70 (0.63)
Mean (SEM) Composite Disease Activity Index (DAI) Score AUC [3]: 16.6 (1.25)
Mean (SEM) Fecal Blood Score AUC [3]: 10.3 (0.82)
Mean (SEM) Stool Consistency Score AUC [3]: 4.60 (0.74)
Mean Percent Inhibition of alpha-SMA Expression (human lung fibroblasts; peptide 0.00316 μM): 6.25%
Mean Percent Inhibition of alpha-SMA Expression (human lung fibroblasts; peptide 0.01 μM): 1.25%
Mean Percent Inhibition of alpha-SMA Expression (human lung fibroblasts; peptide 0.0316 μM): −5.63%
Mean Percent Inhibition of alpha-SMA Expression (human lung fibroblasts; peptide 0.1 μM): −5.63%
Mean Percent Inhibition of alpha-SMA Expression (human lung fibroblasts; peptide 0.316 μM): 4.06%
Mean Percent Inhibition of alpha-SMA Expression (human lung fibroblasts; peptide 1 μM): 28.1%
Mean Percent Inhibition of alpha-SMA Expression (human lung fibroblasts; peptide 3.16 μM): 81.6%
Mean Percent Inhibition of alpha-SMA Expression (human lung fibroblasts; peptide 10 μM): 88.1%
Mean (SEM) Leukocyte Count in BALF (Percent of Bleomycin Control) ([4]; Day 21, 14 days of treatment): 72.2 (5.96) Percent
Mean (SEM) Lung Weight (Percent of Bleomycin Control) ([4]; Day 21, 14 days of treatment): 73.8 (3.13) Percent
Mean (SEM) Percent Body Weight Change from Baseline ([4]; Day 21, 14 days of treatment): 2.71 (1.48) Percent
Mean (SEM) Collagen Content in BALF (Percent of Bleomycin Control) ([4]; Sircol assay, Day 21): 49.6 (6.48) Percent
Mean (SEM) Ashcroft Score (Percent of Bleomycin Control) ([4]; histopathology, Day 21): 80.73 (7.24) Percent
